Where “and” joins values, the source holds several entries; their conditions need not be identical. Identical values can stand only once.
Experiments:
Conditions in all cases: incubation time: 72 h
BT-474 [1] = experiment: normalised viability (% of control), CellTiter-Blue; higher = more viable cells (100 = DMSO, 0 = benzethonium chloride kill control)
Protocol: (§1)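 DSRT, CellTiter-Blue viability, 72 h incubation. Signal is normalised to DMSO and benzethonium chloride controls. Value is the normalised response at dose 1.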

BT-549 [2] = experiment: as above
Protocol: as §1

CAL-120 [3] = experiment: as above
Protocol: as §1

CAL-148 [4] = experiment: as above
Protocol: as §1

CAL-51 [5] = experiment: as above
Protocol: as §1

CAL-85-1 [6] = experiment: as above
Protocol: as §1

DU-4475 [7] = experiment: as above
Protocol: as §1

HCC1143 [8] = experiment: as above
Protocol: as §1

HCC1599 [9] = experiment: as above
Protocol: as §1

HCC1937 [10] = experiment: as above
Protocol: as §1

HDQ-P1 [11] = experiment: as above
Protocol: as §1

Hs578T [12] = experiment: as above
Protocol: as §1

MDA-MB-231 [13] = experiment: as above
Protocol: as §1

MDA-MB-436 [14] = experiment: as above
Protocol: as §1

MDA-MB-453 [15] = experiment: as above
Protocol: as §1

MDA-MB-468 [16] = experiment: as above
Protocol: as §1

MFM-223 [17] = experiment: as above
Protocol: as §1

SK-BR-3 [18] = experiment: as above
Protocol: as §1

BT-474 [19] = experiment: normalised response (% of control), CellTiter-Glo; higher = more viable cells (100 = DMSO, 0 = benzethonium chloride kill control)
How it was run: (§2)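 In 384-well plates holding compound at 5 concentrations in 10-fold steps over a 10,000-fold range specific to each compound, breast cancer cell lines were seeded as 20 µl suspension and incubated 72 h. CellTox Green fluorescence was measured at 485/520 nm, after which CellTiter-Glo luminescence was measured following 10 min at room temperature. Plate signals were normalised to 0.1 % DMSO (100) and a positive kill control (0), and each value is the normalised signal at a single concentration.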

BT-549 [20] = experiment: as above
How it was run: as §2

CAL-120 [21] = experiment: as above
How it was run: as §2

CAL-148 [22] = experiment: as above
How it was run: as §2

CAL-51 [23] = experiment: as above
How it was run: as §2

CAL-85-1 [24] = experiment: as above
How it was run: as §2

DU-4475 [25] = experiment: as above
How it was run: as §2

HCC1143 [26] = experiment: as above
How it was run: as §2

HCC1599 [27] = experiment: as above
How it was run: as §2

HCC1937 [28] = experiment: as above
How it was run: as §2

HDQ-P1 [29] = experiment: as above
How it was run: as §2

Hs578T [30] = experiment: as above
How it was run: as §2

MCF-10A = experiment: as above
How it was run: as §2

MDA-MB-231 [31] = experiment: as above
How it was run: as §2

MDA-MB-436 [32] = experiment: as above
How it was run: as §2

MDA-MB-453 [33] = experiment: as above
How it was run: as §2

MDA-MB-468 [34] = experiment: as above
How it was run: as §2

MFM-223 [35] = experiment: as above
How it was run: as §2

SK-BR-3 [36] = experiment: as above
How it was run: as §2

Compound	normalised viability (BT-474 [1])	normalised viability (BT-549 [2])	normalised viability (CAL-120 [3])	normalised viability (CAL-148 [4])	normalised viability (CAL-51 [5])	normalised viability (CAL-85-1 [6])	normalised viability (DU-4475 [7])	normalised viability (HCC1143 [8])	normalised viability (HCC1599 [9])	normalised viability (HCC1937 [10])	normalised viability (HDQ-P1 [11]) [%]	normalised viability (Hs578T [12])	normalised viability (MDA-MB-231 [13])	normalised viability (MDA-MB-436 [14])	normalised viability (MDA-MB-453 [15])	normalised viability (MDA-MB-468 [16])	normalised viability (MFM-223 [17])	normalised viability (SK-BR-3 [18])	normalised response (BT-474 [19]) [%]	normalised response (BT-549 [20]) [%]	normalised response (CAL-120 [21]) [%]	normalised response (CAL-148 [22]) [%]	normalised response (CAL-51 [23]) [%]	normalised response (CAL-85-1 [24]) [%]	normalised response (DU-4475 [25]) [%]	normalised response (HCC1143 [26]) [%]	normalised response (HCC1599 [27]) [%]	normalised response (HCC1937 [28]) [%]	normalised response (HDQ-P1 [29]) [%]	normalised response (Hs578T [30]) [%]	normalised response (MCF-10A) [%]	normalised response (MDA-MB-231 [31]) [%]	normalised response (MDA-MB-436 [32]) [%]	normalised response (MDA-MB-453 [33]) [%]	normalised response (MDA-MB-468 [34]) [%]	normalised response (MFM-223 [35]) [%]	normalised response (SK-BR-3 [36]) [%]
CC(=O)c1c(C)c2cnc(Nc3ccc(N4CCNCC4)cn3)nc2n(C2CCCC2)c1=O (1 nM)	108%	102%	87.1%	107%	104%	87.9%	99%	100%	105%	94.7%	79.2	89.5%	94.6%	94.1%	106%	109%	88.5%	93.1%	–	–	–	–	–	–	–	–	–	–	–	–	–	–	–	–	–	–	–
COc1cc2c(cc1O)CC[C@@H]1[C@@H]2CC[C@]2(C)[C@@H](O)CC[C@@H]12 [2-methoxyestradiol] (1 nM)	102%	96.4%	92.1%	102%	112%	91.6%	107%	88.9%	101%	87.5%	97.1	105%	88.8%	115%	95.5%	103%	102%	89.3%	96.7	103	94.9	97.3	122	102	99	97.8	104	98.8	97.1	106	92.5	104	101	106	104	95.9	87.2
Cc1sc2c(c1C)C(c1ccc(Cl)cc1)=N[C@@H](CC(=O)OC(C)(C)C)c1nnc(C)n1-2 [(+)JQ1] (1 nM)	114%	104%	90.3%	108%	97.5%	87.4%	110%	126%	113%	97.4%	90.9	114%	114%	139%	177%	104%	102%	107%	107	103	98.5	113	85	97.2	106	103	96.6	95.8	101	98.1	105	106	127	126	103	104	111
Oc1ncnc2[nH]ncc12 [Allopurinol] (1 nM)	97.2%	92.2%	111%	119%	92.5%	112%	109%	106%	91.2%	78.6%	108	95.6%	93.5%	102%	116%	109%	96.2%	91.7%	101	106	100	100	95.1	99.3	102	108	101	98.2	101	103	108	101	99.9	113	109	105	117
O=C1CN2Cc3c(ccc(Cl)c3Cl)N=C2N1 [Anagrelide] (1 nM)	122%	113%	84.6%	103%	105%	88.7%	109%	90.1%	87.8%	68.3%	112	119%	102%	80.8%	105%	101%	98.9%	96.1%	90.6	101	92.8	90.2	110	99.5	102	100	105	97.1	110	100	94	97.2	86	109	103	98.8	104
Nc1ncn([C@@H]2O[C@H](CO)[C@@H](O)[C@H]2O)c(=O)n1 [Azacitidine] (1 nM)	89.5%	93.7%	84.4%	92%	102%	94.9%	109%	89.3%	89.1%	85%	99.9	105%	89.3%	108%	102%	95.5%	95.5%	94.6%	97.1	96.5	95.9	96.1	129	103	102	95.4	96.8	94	98.7	98.7	101	101	102	112	100	104	105
CC(=O)O[C@@]12CO[C@@H]1C[C@H](O)[C@@]1(C)C(=O)[C@H](O)C3=C(C)[C@@H](OC(=O)[C@H](O)[C@@H](NC(=O)OC(C)(C)C)c4ccccc4)C[C@@](O)([C@@H](OC(=O)c4ccccc4)[C@H]21)C3(C)C [Docetaxel] (0.1 nM)	104% and 90.1%	92.9% and 96.3%	96.5% and 94.7%	107% and 110%	104% and 92.1%	101% and 106%	109% and 110%	107% and 111%	119% and 123%	81.5% and 83.6%	–	99.7% and 96.5%	110% and 94.6%	91.9% and 106%	118% and 98.6%	96.8% and 100%	100% and 102%	103% and 105%	98.8	104	104	90.8	94.5	102	96.7	96.3	101	94.5	96.2	93.2	98	102	105	99.7	106	96.9	99.3
C[C@]12CC[C@@H]3c4ccc(OC(=O)N(CCCl)CCCl)cc4CC[C@H]3[C@@H]1CC[C@@H]2O [Estramustine] (0.099 nM)	93.4%	92.4%	111%	109%	84%	108%	89.9%	104%	84.8%	91.8%	106	94.3%	93.3%	106%	98.9%	107%	106%	114%	–	–	–	–	–	–	–	–	–	–	–	–	–	–	–	–	–	–	–
C[C@]1(O)C[C@@H](c2nc(-c3ccc4ccc(-c5ccccc5)nc4c3)c3c(N)nccn32)C1 [OSI-906] (1 nM)	82.9%	95.7%	97.4%	94.6%	95.6%	100%	89%	96.8%	100%	92.3%	74.5	101%	83.7%	85%	85.7%	100%	95.6%	91.1%	–	–	–	–	–	–	–	–	–	–	–	–	–	–	–	–	–	–	–
COc1cc(F)c(F)c(Nc2ccc(I)cc2F)c1NS(=O)(=O)C1(C[C@H](O)CO)CC1 [RDEA119] (1 nM)	79.7%	97.3%	98.7%	88.7%	91.8%	108%	99.3%	98.8%	93%	80.9%	79.4	95.4%	77.4%	104%	84.5%	95.8%	92.5%	106%	–	–	–	–	–	–	–	–	–	–	–	–	–	–	–	–	–	–	–

Source: the supplement of paper PMC4862054
